Results: ChEMBL document CHEMBL1151435, “Antileishmanial structure-activity relationships of synthetic phospholipids: in vitro and in vivo activities of selected derivatives” (Antimicrob Agents Chemother, 2007)
Each block holds one compound with its values, some of them ahead of it.

What was measured:
Leishmania donovani [1] = experiment: Antileishmanial activity against intracellular Leishmania donovani MHOM/ET/67/HU3 amastigotes infected in peritoneal macrophages of Mesocricetus auratus by drug sensitivity assay; assay type: functional, organism-based
Leishmania donovani [2] = experiment: Activity ratio of compound EC50 to miltefosine EC50 for intracellular Leishmania donovani MHOM/ET/67/HU3 amastigotes infected in peritoneal macrophages of Mesocricetus auratus; assay type: functional
Leishmania donovani [3] = experiment: Antileishmanial activity against Leishmania donovani MHOM/ET/67/HU3 promastigotes by drug sensitivity assay; assay type: functional, organism-based
[4] = Therapeutic index, ratio of EC50 for human THP1 cells to EC50 for intracellular Leishmania donovani MHOM/ET/67/HU3 amastigotes infected in peritoneal macrophages of Mesocricetus auratus; assay type: cell-based, THP-1; conditions: read-out: TI
[5] = Therapeutic index, ratio of EC50 for human KB cells to EC50 for intracellular Leishmania donovani MHOM/ET/67/HU3 amastigotes infected in peritoneal macrophages of Mesocricetus auratus; assay type: cell-based; conditions: read-out: TI
Leishmania donovani [6] = experiment: Antileishmanial activity against Leishmania donovani MHOM/ET/67/L82 infected in po dosed BALB/c mouse model; assay type: functional; conditions: MHOM/ET/67/L82, po
Leishmania donovani [7] = experiment: Antileishmanial activity against Leishmania donovani MHOM/ET/67/HU3 amastigotes infected in po dosed BALB/c mouse model administered one week after infection for 5 consecutive days measured after 3 days of last dose by Giemsa staining; assay type: functional; conditions: for ED50: MHOM/ET/67/HU3, po
Leishmania donovani [8] = experiment: Antileishmanial activity against Leishmania donovani MHOM/ET/67/HU3 amastigotes infected in ip dosed BALB/c mouse model administered one week after infection for 5 consecutive days measured after 3 days of last dose by Giemsa staining; assay type: functional; conditions: MHOM/ET/67/HU3, ip
[9] = Solubility at phosphate-buffered saline of pH 7.4; assay type: physicochemical; conditions: buffer
Leishmania donovani [10] = experiment: Antileishmanial activity against Leishmania donovani MHOM/ET/67/HU3 amastigotes infected in ip dosed BALB/c mouse model administered as suspension one week after infection for 5 consecutive days measured after 3 days of last dose by Giemsa staining; assay type: functional; conditions: MHOM/ET/67/HU3, ip

SMILES: CCCCCCCCCCCCCCCCCCOCCOCCOP(=O)([O-])OCC[N+]1(C)CCCC1
EC50 (Leishmania donovani [3]): 3.36 µM

SMILES: CCCCCCCCCCCCCCCCCCOP(=O)([O-])OCC[N+]1(C)CCC(O)CC1 (configuration not stated)
EC50 (Leishmania donovani [3]): 3.06 µM
EC50 (Leishmania donovani [1]): 1.37 µM
Ratio EC50 (Leishmania donovani [2]): 0.41

SMILES: CCCCCCCCCCCCCCCCCCSCC(COC)COP(=O)([O-])OCC[N+]1(C)CCCCC1.O (configuration not stated)
EC50 (Leishmania donovani [3]): 3.61 µM
EC50 (Leishmania donovani [1]): 0.25 µM
Ratio EC50 (Leishmania donovani [2]): 0.07

SMILES: CCCCCCCCCCCCCCCCCCCOP(=O)([O-])OCC[N+]1(C)CCCCC1
EC50 (Leishmania donovani [3]): 1.29 µM

SMILES: CCCCCCCCCCCCCCCCCCOP(=O)([O-])OCC[N+](C)(C)C1CCCCC1.O
EC50 (Leishmania donovani [1]): 1.19 µM
Ratio EC50 (Leishmania donovani [2]): 0.22

SMILES: CCCCCCCCCCCCCCCCOP(=O)([O-])OC1CC[N+](C)(Cc2ccccc2)CC1 (configuration not stated)
EC50 (Leishmania donovani [1]): 0.41 µM
Ratio EC50 (Leishmania donovani [2]): 0.12
selectivity ratio [4]: > 220
selectivity ratio [5]: 179
solubility [9]: Soluble
ED50 (Leishmania donovani [10]): 33 mg/kg

SMILES: CCCCCCCCCCCCCCCCCCOP(=O)([O-])OC1CC2CCC(C1)[N+]2(C)C (configuration not stated)
EC50 (Leishmania donovani [1]): 0.71 µM
Ratio EC50 (Leishmania donovani [2]): 0.13

SMILES: CCCCCCCCCCCCCCCCCCOCC(COP(=O)([O-])OCC[N+]1(C)CCCCC1)OC (configuration not stated)
EC50 (Leishmania donovani [3]): 1.79 µM
EC50 (Leishmania donovani [1]): 1.68 µM
Ratio EC50 (Leishmania donovani [2]): 0.32

SMILES: CCCCCCCCC(Br)C(Br)CCCCCCCCOP(=O)([O-])OCC[N+](C)(C)C (configuration not stated)
EC50 (Leishmania donovani [3]): 1.09 µM

SMILES: CCCCCCCCCCCCCCCCCCOP(=O)([O-])OCC[N+]1(C)CCSCC1.O
EC50 (Leishmania donovani [3]): 2.37 µM
EC50 (Leishmania donovani [1]): 1.22 µM
Ratio EC50 (Leishmania donovani [2]): 0.23

SMILES: CCCCCCCCCCCCCCCCCCOP(=O)([O-])OCC[N+](C)(C)CC
EC50 (Leishmania donovani [3]): 2.04 µM

SMILES: CCCCCCCCCCCCCCCCOCCCOP(=O)([O-])OCC[N+](C)(C)C
EC50 (Leishmania donovani [3]): 1.55 µM

SMILES: CCCCCCCCCCCCCCCCCCOP(=O)([O-])OC1CC[N+](C)(CC)CC1 (configuration not stated)
EC50 (Leishmania donovani [3]): 2.71 µM

SMILES: CCCCCCCCCCCCCCCCCCOP(=O)([O-])OCC[N+](C)(C)C1CC1.O
EC50 (Leishmania donovani [3]): 1.52 µM
EC50 (Leishmania donovani [1]): 2.64 µM
Ratio EC50 (Leishmania donovani [2]): 0.5

Continued, in another order:

EC50 (Leishmania donovani [1]): 0.76 µM
SMILES: CCCCCCCCCCCCCCCCCCOP(=O)([O-])OCCC1CC[N+](Cc2ccccc2)(Cc2ccccc2)CC1.O
Ratio EC50 (Leishmania donovani [2]): 0.23

EC50 (Leishmania donovani [3]): 5.7 µM
EC50 (Leishmania donovani [1]): 2.04 µM
SMILES: CCCCCCCCCCCCCCCCOP(=O)([O-])OCC[N+](C)(C)C [MILTEFOSINE]
selectivity ratio [4]: 5.48
selectivity ratio [5]: 0.83
ED50 (Leishmania donovani [6]): 10 mg/kg
ED50 (Leishmania donovani [7]): 8.09 mg/kg
ED50 (Leishmania donovani [8]): 7.72 mg/kg

EC50 (Leishmania donovani [3]): 3.58 µM
SMILES: CCCCCCCCCCCCCCCCOCC(COP(=O)([O-])OCC[N+](C)(C)C)OC (configuration not stated)

EC50 (Leishmania donovani [1]): 2.46 µM
SMILES: CCCCCCCCCCCCCCCCOP(=O)([O-])OCC[N+]1(C)CCOCC1.O
Ratio EC50 (Leishmania donovani [2]): 0.46

EC50 (Leishmania donovani [1]): 0.4 µM
SMILES: CCCCCCCCCCCCCCCCCCOP(=O)([O-])OC1CC[N+](C)(Cc2ccccc2)CC1.O (configuration not stated)
Ratio EC50 (Leishmania donovani [2]): 0.12

EC50 (Leishmania donovani [1]): 0.82 µM
SMILES: CCCCCCCCCCCCCCCCCCOP(=O)([O-])OCCC1CC[N+](C)(Cc2ccccc2)CC1.O.O (configuration not stated)
Ratio EC50 (Leishmania donovani [2]): 0.25

EC50 (Leishmania donovani [3]): 3.06 µM
SMILES: CCCCCCCCCCCCCCCCCCOP(=O)([O-])OC1CC[N+]2(CCCC2)CC1

EC50 (Leishmania donovani [1]): 0.43 µM
SMILES: CCCCCCCCCCCCCCCCCCOP(=O)([O-])OC1CCC[N+](C)(C)C1 (configuration not stated)
Ratio EC50 (Leishmania donovani [2]): 0.13

EC50 (Leishmania donovani [1]): 0.58 µM
SMILES: CCCCCCCCCCCCCCCCOP(=O)([O-])OCC[N+](C)(C)c1ccccc1.O
Ratio EC50 (Leishmania donovani [2]): 0.11

EC50 (Leishmania donovani [1]): 0.99 µM
SMILES: CCCCCCCCCCCCCCCCOP(=O)([O-])OC1CC[N+](C)(CCc2ccccc2)CC1.O.O (configuration not stated)
Ratio EC50 (Leishmania donovani [2]): 0.49

EC50 (Leishmania donovani [3]): 3.02 µM
SMILES: CCCCCCCCCCCCCCCCCCOP(=O)([O-])OC1CC[N+](C)(C)CC1 [PERIFOSINE]
Ratio EC50 (Leishmania donovani [2]): 0.63
ED50 (Leishmania donovani [6]): 25.2 mg/kg

EC50 (Leishmania donovani [1]): 0.55 µM
SMILES: CCCCCCCCCCCCCCCCOP(=O)([O-])OCC[N+]12CCC(CC1)CC2.O
Ratio EC50 (Leishmania donovani [2]): 0.16

EC50 (Leishmania donovani [1]): 0.3 µM
SMILES: CCCCCCCCCCCCCCCCOP(=O)([O-])OCC[N+]1(C)CCCCC1
Ratio EC50 (Leishmania donovani [2]): 0.09
selectivity ratio [4]: 95.7
selectivity ratio [5]: 23.4
Activity (Leishmania donovani [7]): Dose-dependent effect
ED50 (Leishmania donovani [7]): 25.5 mg/kg

EC50 (Leishmania donovani [3]): 1.69 µM
SMILES: CCCCCCCCCCCCCCCCCCOCC(COP(=O)([O-])OC1CC2CCC(C1)[N+]2(C)C)OC (configuration not stated)

EC50 (Leishmania donovani [3]): 3.35 µM
SMILES: CCCCCCCCCCCCCCCCCC(C)OP(=O)([O-])OCC[N+](C)(C)C (configuration not stated)

EC50 (Leishmania donovani [1]): 0.94 µM
SMILES: CCCCCCCCCCCCCCCCCCOP(=O)([O-])OCC[N+]1(C)CCOCC1
Ratio EC50 (Leishmania donovani [2]): 0.18

EC50 (Leishmania donovani [1]): 1.32 µM
SMILES: CCCCCCCCCCCCCCCCOCCOCCOCCOCCOCCOCCOCCOCCOCCOCCOP(=O)([O-])OC1CC[N+](C)(C)CC1
Ratio EC50 (Leishmania donovani [2]): 0.4

EC50 (Leishmania donovani [3]): 2.4 µM
SMILES: CCCCCCCCCCCCCCCCCCOP(=O)([O-])OCC[N+](C)(C)C [OCTADECYLPHOSPHONOCHOLINE]

EC50 (Leishmania donovani [1]): 0.4 µM
SMILES: CCCCCCCCCCCCCCCCCCOP(=O)([O-])OC1CC[N+](CC)(CC)CC1.O.O
Ratio EC50 (Leishmania donovani [2]): 0.12
selectivity ratio [4]: 11.7
selectivity ratio [5]: 6.89
ED50 (Leishmania donovani [7]): 35.3 mg/kg
